The text below walks through data of DBAASP.

Assay in all cases: ≥ marks a high value that may be exact or a test limit, other limits are often not marked, values filed in µg/mL are converted to µM
The subject of assay [1] is Staphylococcus aureus ATCC 33591.
In assay [2] the test system is Bacillus cereus ATCC 14579.
The subject of assay [3] is Bacillus subtilis ATCC 23858.
Assay [4] concerns Listeria monocytogenes ATCC 7644.
Assay [5] deals with Staphylococcus aureus ATCC 29313.
The subject of assay [6] is Pseudomonas aeruginosa ATCC 27853.
Assay [7] deals with Escherichia coli ATCC 25922.
Assay [8] has as its system Xanthomonas axonopodis pv. glycines ISBF 327.
In assay [9] the test system is Pseudomonas aeruginosa Pa4-SA2.
Assay [10] has as its system Pseudomonas aeruginosa Pa1-SA2.
The subject of assay [11] is Klebsiella pneumoniae ATCC 700603.
For assay [12], the system named is Pseudomonas aeruginosa PAO1.
In assay [13] the test system is Salmonella enterica subsp. enterica serovar Typhimurium ATCC 14028.
Assay [14] concerns Pseudomonas aeruginosa PA006.
Assay [15] deals with Listeria monocytogenes ATCC 35152.
For assay [16], the system named is Staphylococcus aureus ATCC 25923.
In assay [17] the test system is Klebsiella pneumoniae ATCC 13883.
Assay [18] deals with Escherichia coli NEB5alpha.
In assay [19] the test system is Bacillus subtilis ATCC 6051.
Assay [20] deals with Pseudomonas syringae pv. syringae EPS 94.
Assay [21] concerns Xanthomonas campestris pv. Vesicatoria 2133-2.
For assay [22], the system named is Erwinia amylovora PMV 6076.
Assay [23] has as its system Candida albicans 01U.
The test system of assay [24] is Trichophyton mentagrophytes.
Assay [25] has as its system Candida parapsilosis.
Assay [26] has as its system Trichophyton rubrum.
The subject of assay [27] is Cryptococcus neoformans L26.
In assay [28] the test system is Cryptococcus neoformans L30.
Assay [29] deals with Candida albicans 38U.
Assay [30] relates to Escherichia coli K12 MG1655.
Assay [31] concerns Staphylococcus aureus 68 HER 1049.

In brackets after ≈: the same amount, converted by molar mass. A value given as a limit tells only on which side of the number the result lay.

The MIC is the lowest concentration that inhibits growth of the organism. Higher therefore signals a less susceptible organism. As to `CC[C@H](C)[C@H](NC(=O)[C@H](CC(C)C)NC(=O)[C@@H]1CCCN1C(=O)[C@H](CC(C)C)NC(=O)[C@@H](N)Cc1ccccc1)C(=O)N[C@@H](CC(C)C)C(=O)N1CCC[C@H]1C(=O)N[C@@H](CO)C(=O)N[C@H](C(=O)N[C@H](C(=O)N[C@H](C(=O)N[C@@H](C)C(=O)N[C@@H](CC(C)C)C(=O)N[C@@H](CO)C(=O)N[C@@H](CO)C(=O)N[C@@H](Cc1ccccc1)C(=O)N[C@@H](CC(C)C)C(=O)N[C@@H](CCCCN)C(=O)N[C@@H](CCC(N)=O)C(=O)NCC(=O)O)[C@@H](C)O)C(C)C)[C@@H](C)CC` [FLPLILPSIVTALSSFLKQG], the MIC was 11.7 µM (≈ 25.1 µg/mL) in [1], 23.3 µM (≈ 50 µg/mL) in assay [2], 23.3 µM (≈ 50 µg/mL) in assay [3] and not below 46.6 µM in [4].
For the compound `CC[C@H](C)[C@H](NC(=O)[C@@H](NC(=O)[C@H](CCCCN)NC(=O)[C@H](CCCCN)NC(=O)[C@H](CC(C)C)NC(=O)[C@@H](NC(=O)[C@H](CC(N)=O)NC(=O)[C@H](CC(C)C)NC(=O)CN)[C@@H](C)O)C(C)C)C(=O)N[C@@H](CCC(N)=O)C(=O)NCC(=O)N[C@@H](CC(C)C)C(=O)N[C@@H](Cc1cnc[nH]1)C(=O)N[C@@H](CCC(=O)O)C(=O)N[C@H](C(=O)N[C@H](C(=O)N[C@@H](CCCCN)C(=O)N[C@@H](CC(C)C)C(=O)N[C@H](C(=O)N[C@@H](CC(N)=O)C(=O)N[C@@H](CC(N)=O)C(=O)N[C@@H](Cc1cnc[nH]1)C(=O)N[C@@H](C)C(N)=O)C(C)C)[C@@H](C)CC)C(C)C` [GLNTLKKVIQGLHEVIKLVNNHA], the minimal inhibitory concentration (MIC) turned out to be 6 µM (≈ 15.2 µg/mL) in assay [5], 50 µM (≈ 127 µg/mL) in assay [6], 6 µM (≈ 15.2 µg/mL) in assay [7] and 2 µM (≈ 5.08 µg/mL) in assay [8].
With `CC[C@H](C)[C@H](NC(=O)[C@H](CCCCN)NC(=O)CNC(=O)[C@@H](NC(=O)[C@H](C)NC(=O)[C@H](Cc1cnc[nH]1)NC(=O)[C@H](C)NC(=O)[C@@H](NC(=O)[C@H](CC(C)C)NC(=O)[C@H](CCC(N)=O)NC(=O)[C@H](CCCCN)NC(=O)CNC(=O)[C@H](C)NC(=O)[C@H](CC(=O)O)NC(=O)[C@H](CCCCN)NC(=O)[C@@H](NC(=O)[C@@H](NC(=O)[C@H](CC(=O)O)NC(=O)[C@H](Cc1ccccc1)NC(=O)[C@@H](NC(=O)CN)C(C)C)[C@@H](C)CC)[C@@H](C)CC)C(C)C)[C@@H](C)O)C(=O)N[C@@H](C)C(=O)N[C@@H](CCC(=O)O)C(=O)N[C@@H](CCCCN)C(=O)N[C@H](C(N)=O)C(C)C` [GVFDIIKDAGKQLVAHATGKIAEKV], the minimal inhibitory concentration (MIC) in assay [9] is not below 49.1 µM; in assay [10], not below 98.1 µM; in [5], not below 307 µM; in assay [11], more than 307 µM; in assay [12], 196 µM (≈ 512 µg/mL); in assay [6], 392 µM (≈ 1020 µg/mL). Further, the MIC in [13] was more than 307 µM; in [7] it was more than 307 µM; in assay [14], 6.13 µM (≈ 16 µg/mL).
As for `CSCC[C@H](NC(=O)[C@H](CCCCN)NC(=O)[C@H](CCCCN)NC(=O)[C@H](CC(N)=O)NC(=O)[C@H](CCCN=C(N)N)NC(=O)[C@H](CS)NC(=O)[C@H](CCCCN)NC(=O)[C@@H](N)CCCCN)C(=O)N[C@@H](CCC(=O)O)C(=O)N[C@H](C(=O)N[C@@H](CO)C(=O)N[C@@H](CCCN=C(N)N)C(N)=O)C(C)C` [KKCRNKKMEVSR], the minimum inhibitory concentration (MIC) was found to be 26.5 µM (≈ 40 µg/mL) in [15]; 16.6 µM (≈ 25 µg/mL) in assay [16]; 39.8 µM (≈ 60 µg/mL) in assay [6]; 26.5 µM (≈ 40 µg/mL) in [7]; 19.9 µM (≈ 30 µg/mL) in assay [17].
On to `CC[C@H](C)[C@H](NC(=O)[C@@H]1CCCN1C(=O)[C@H](Cc1cnc[nH]1)NC(=O)[C@H](CCCCN)NC(=O)[C@@H]1CCCN1C(=O)[C@@H](N)CCCN=C(N)N)C(=O)N[C@@H](CCCCN)C(=O)N[C@@H](Cc1cnc[nH]1)C(=O)N[C@@H](CCC(N)=O)C(=O)NCC(=O)N[C@@H](CC(C)C)C(=O)N1CCC[C@H]1C(=O)N[C@@H](CCC(N)=O)C(=O)N[C@@H](CCC(=O)O)C(=O)N[C@H](C(=O)N[C@@H](CC(C)C)C(=O)N[C@@H](CC(N)=O)C(=O)N[C@@H](CCC(=O)O)C(=O)N[C@@H](CC(N)=O)C(=O)N[C@@H](CC(C)C)C(=O)N[C@@H](CC(C)C)C(=O)N[C@@H](CCCN=C(N)N)C(=O)N[C@@H](Cc1ccccc1)C(=O)N[C@@H](Cc1ccccc1)C(=O)O)C(C)C` [RPKHPIKHQGLPQEVLNENLLRFF], for which the MIC was not below 47.2 µM in [18], 23.6 µM (≈ 68.8 µg/mL) in assay [19] and 189 µM (≈ 550 µg/mL) in assay [7].
Regarding `CC[C@H](C)[C@H](NC(=O)[C@H](CCCCN)NC(=O)[C@H](CCCCN)NC(=O)[C@H](Cc1ccccc1)NC(=O)[C@H](CC(C)C)NC(=O)[C@H](CCCCN)NC(=O)[C@H](CCCCN)NC(=O)[C@H](C)NC(=O)[C@@H]1CCCN1C(=O)CNC(=O)[C@H](C)NC(=O)[C@H](CC(C)C)NC(=O)[C@H](Cc1ccc(O)cc1)NC(=O)[C@H](CCCCN)NC(=O)[C@H](CC(C)C)NC(=O)[C@@H](NC(=O)[C@H](CCCCN)NC(=O)[C@H](CCCCN)NC(=O)[C@H](Cc1ccccc1)NC(=O)[C@H](CC(C)C)NC(=O)[C@H](CCCCN)NC(=O)[C@H](CCCCN)NC(=O)[C@@H](N)CO)[C@@H](C)CC)C(=O)N[C@@H](CC(C)C)C(=O)N[C@@H](CCCCN)C(=O)N[C@@H](Cc1ccc(O)cc1)C(=O)N[C@@H](CC(C)C)C(=O)O` [SKKLFKKILKYLAGPAKKLFKKILKYL], the MIC turned out to be 8.66 µM (≈ 27.8 µg/mL) in assay [20], 14.1 µM (≈ 45.4 µg/mL) in assay [21] and 14.1 µM (≈ 45.4 µg/mL) in assay [22].
For the compound `CC[C@H](C)[C@H](NC(=O)[C@H](CC(C)C)NC(=O)[C@H](CCC(=O)O)NC(=O)[C@H](CO)NC(=O)[C@H](CCCN=C(N)N)NC(=O)[C@@H](N)CO)C(=O)N[C@H](C(=O)N[C@@H](Cc1cnc[nH]1)C(=O)N[C@@H](CCC(N)=O)C(=O)N[C@@H](CCCN=C(N)N)C(=O)N[C@@H](CCCN=C(N)N)C(=O)N[C@@H](CS)C(N)=O)C(C)C` [SRSELIVHQRRC], the MIC in assay [23] is not below 86.3 µM; in [24] it was not below 173 µM; in assay [25] it was not below 173 µM; in assay [26], not below 86.3 µM; in [27], not below 173 µM; in assay [28], not below 173 µM. The compound further came in with a minimal inhibitory concentration (MIC) in assay [29] not below 43.1 µM.
On to `CC[C@H](C)[C@H](NC(=O)[C@H](CCCN=C(N)N)NC(=O)[C@H](CCCCN)NC(=O)[C@H](Cc1c[nH]c2ccccc12)NC(=O)[C@H](CCCN=C(N)N)NC(=O)[C@H](CCCCN)NC(=O)[C@H](Cc1c[nH]c2ccccc12)NC(=O)[C@@H](N)Cc1c[nH]c2ccccc12)C(=O)N[C@@H](CCCN=C(N)N)C(=O)N[C@@H](CCCN=C(N)N)C(=O)N[C@H](C(=O)N[C@@H](Cc1ccccc1)C(=O)N[C@@H](CCSC)C(=O)N[C@@H](CCSC)C(=O)N[C@H](C(=O)O)C(C)C)[C@@H](C)CC` [WWKRWKRIRRIFMMV], for which the MIC in assay [30] worked out at 1.82 µM (≈ 4 µg/mL); in [31], 3.65 µM (≈ 8 µg/mL).
